According to patent publication US9056851B2, “Thiolactone antibiotics” (priority 2011, dated 2015):
Values after ≈ are worked out from the molar mass of the structure shown.

Experiments:
M. smegmatis MC^2155 = assay: MIC against M. smegmatis; assay type: cell-based; settings: Mycolicibacterium smegmatis, MC^2155; MIC90; read-out: MIC (μg/ml) M. smeg
F. tularensis LVS = assay: microbe, parasite or virus in culture; assay type: cell-based; settings: Francisella tularensis, read-out: MIC (μg/ml) F. tu
S. aureus BAA1762 = assay: MIC against S. aureus BAA1762 (MRSA); assay type: cell-based; settings: Staphylococcus aureus; MIC90; read-out: MIC (μg/ml) Staph. aureus BAA1762 MRSA
S. aureus RN4220 = assay: MIC against S. aureus RN4220 (MSSA); assay type: cell-based; settings: Staphylococcus aureus, MIC90, read-out: MIC (μg/ml) Staph. aureus RN4220 MSSA
B. thialandensis Bt38 = assay: MIC against B. thialandensis; assay type: cell-based; settings: read-out: MIC (μg/ml) B. thialandensis Bt.38 (efflux^−)
M. tuberculosis H37Rv = assay: MIC against M. tuberculosis; assay type: cell-based; settings: Mycobacterium tuberculosis; MIC99; H37Rv; read-out: MIC (μg/ml) M. tb (MIC99)
Y. pestis A1122 = assay: microbe, parasite or virus in culture; assay type: cell-based; settings: Yersinia pestis, A1122, read-out: MIC (μg/ml) Y. pestis
wild-type apo-KasA = wild-type apo-KasA (Mycobacterium tuberculosis, UniProt P9WQD9); assay: biochemical; assay type: binding
B. pseudomallei Bp82z66 = assay: microbe, parasite or virus in culture; assay type: cell-based; settings: Burkholderia pseudomallei, BP82Z66, read-out: MIC (μg/ml) B. pseudomallei

Chain of wild-type apo-KasA (P9WQD9 whole entry): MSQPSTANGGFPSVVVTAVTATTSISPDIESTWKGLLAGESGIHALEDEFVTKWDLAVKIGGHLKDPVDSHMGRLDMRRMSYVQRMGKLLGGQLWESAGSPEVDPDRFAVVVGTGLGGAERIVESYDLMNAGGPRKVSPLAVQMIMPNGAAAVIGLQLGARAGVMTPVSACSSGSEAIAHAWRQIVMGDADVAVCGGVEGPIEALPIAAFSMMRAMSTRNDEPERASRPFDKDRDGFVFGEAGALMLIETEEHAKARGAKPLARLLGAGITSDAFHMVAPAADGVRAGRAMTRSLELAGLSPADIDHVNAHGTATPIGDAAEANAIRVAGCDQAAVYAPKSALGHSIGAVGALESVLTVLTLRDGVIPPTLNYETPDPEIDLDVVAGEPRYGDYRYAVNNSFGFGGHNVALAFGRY

Q: How did the MIC (M. smegmatis MC^2155) turn out when `C=C/C(C)=C/[C@@]1(C)SC(=O)C(CCC)=C1O` [TLM4, 5R-(+)-3-Propylthiolactomycin] was run?
A: > 100 µg/mL

Q: What about the MIC (F. tularensis LVS) of the same compound?
A: 25.8 µg/mL (≈ 108 µM)

Q: And the MIC (S. aureus BAA1762)?
A: > 200 µg/mL

Q: And the MIC (S. aureus RN4220)?
A: > 200 µg/mL

Q: And the MIC (B. thialandensis Bt38)?
A: 250 µg/mL (≈ 1050 µM)

Q: What about the MIC99 (M. tuberculosis H37Rv) of the same compound?
A: 12.5 µg/mL (≈ 52.4 µM)

Q: And the MIC (Y. pestis A1122)?
A: 250 µg/mL (≈ 1050 µM)

Q: What does the source list for `C=C/C(C)=C/[C@@]1(C)SC(=O)C(CCCCc2ccc(F)cc2)=C1O` [TLM6]?
A: MIC (M. smegmatis MC^2155): > 100 µg/mL; MIC (F. tularensis LVS): 3.15 µg/mL (≈ 9.1 µM); MIC (S. aureus BAA1762): 75 µg/mL (≈ 216 µM); MIC (S. aureus RN4220): > 64 µg/mL; MIC (B. thialandensis Bt38): 250 µg/mL (≈ 722 µM); MIC99 (M. tuberculosis H37Rv): 25 µg/mL (≈ 72.2 µM); MIC (Y. pestis A1122): 250 µg/mL (≈ 722 µM)

Q: How did the MIC (M. smegmatis MC^2155) turn out when `C=C/C(C)=C/[C@@]1(C)SC(=O)C(CC)=C1O` [TLM3, 5R-(+)-3-Ethylthiolactomycin] was run?
A: > 100 µg/mL

Q: And the MIC (F. tularensis LVS)?
A: 6.9 µg/mL (≈ 30.8 µM)

Q: And the MIC (S. aureus BAA1762)?
A: 125 µg/mL (≈ 557 µM)

Q: And the MIC (S. aureus RN4220)?
A: 150 µg/mL (≈ 669 µM)

Q: What about the MIC (B. thialandensis Bt38) of the same compound?
A: 148 µg/mL (≈ 661 µM)

Q: What about the MIC99 (M. tuberculosis H37Rv) of the same compound?
A: < 7.8 µg/mL

Q: What about the MIC (Y. pestis A1122) of the same compound?
A: 145 µg/mL (≈ 645 µM)

Q: What does the source list for `C=C/C(C)=C/[C@@]1(C)SC(=O)C(CCCCc2ccc(-c3ccccc3)cc2)=C1O` [TLM9]?
A: MIC (F. tularensis LVS): 1.97 µg/mL (≈ 4.88 µM); MIC (S. aureus BAA1762): 25 µg/mL (≈ 61.8 µM); MIC (S. aureus RN4220): 16 µg/mL (≈ 39.5 µM); MIC (B. thialandensis Bt38): 145 µg/mL (≈ 359 µM); MIC99 (M. tuberculosis H37Rv): 50 µg/mL (≈ 124 µM); MIC (Y. pestis A1122): 250 µg/mL (≈ 618 µM)

Q: With `C=C/C(C)=C/[C@@]1(C)SC(=O)C(CCCCc2ccc(Br)cc2)=C1O` [TLM8] as the compound, how does the MIC (M. smegmatis MC^2155) read?
A: > 100 µg/mL

Q: What about the MIC (F. tularensis LVS) of the same compound?
A: 2.17 µg/mL (≈ 5.33 µM)

Q: What about the MIC (S. aureus BAA1762) of the same compound?
A: 50 µg/mL (≈ 123 µM)

Q: And the MIC (S. aureus RN4220)?
A: 32 µg/mL (≈ 78.6 µM)

Q: And the MIC (B. thialandensis Bt38)?
A: 126 µg/mL (≈ 309 µM)

Q: And the MIC99 (M. tuberculosis H37Rv)?
A: 25 µg/mL (≈ 61.4 µM)

Q: What about the MIC (Y. pestis A1122) of the same compound?
A: 250 µg/mL (≈ 614 µM)

Q: `C=C/C(C)=C/[C@@]1(C)SC(=O)C(CCCN=[N+]=[N-])=C1O` [TLM10] was tested. Which MIC (F. tularensis LVS) did it give?
A: 23.5 µg/mL (≈ 84.1 µM)

Q: And the MIC (S. aureus BAA1762)?
A: > 100 µg/mL

Q: What about the MIC (S. aureus RN4220) of the same compound?
A: > 64 µg/mL

Q: And the MIC (B. thialandensis Bt38)?
A: 250 µg/mL (≈ 895 µM)

Q: And the MIC99 (M. tuberculosis H37Rv)?
A: 12.5 µg/mL (≈ 44.7 µM)

Q: And the MIC (Y. pestis A1122)?
A: 250 µg/mL (≈ 895 µM)

Q: And the Ki (wild-type apo-KasA)?
A: 233 ± 7 µM

Q: What about the Kd (wild-type apo-KasA; Kd (μM) apo-KasA, Table 1, wild-type apo-KasA, fluorescence spectroscopy) of the same compound?
A: 233 ± 7 µM

Q: What does the source list for `C=C/C(C)=C/[C@@]1(C)SC(=O)C=C1OCC(=O)NCCn1cc(CNC(=O)[C@H](O)C(C)(C)CO)nn1` [TLM26]?
A: MIC (F. tularensis LVS): 159 µg/mL (≈ 313 µM); MIC (S. aureus BAA1762): > 64 µg/mL; MIC (B. pseudomallei Bp82z66): 150 µg/mL (≈ 295 µM); MIC (S. aureus RN4220): > 64 µg/mL; MIC99 (M. tuberculosis H37Rv): > 100 µg/mL

Q: How did the MIC (S. aureus BAA1762) turn out when `C=C/C(C)=C/[C@@]1(C)SC(=O)C(C(=O)CCCCCCCCCCCCCCC)=C1O` [TLM43] was run?
A: 1 µg/mL (≈ 2.3 µM)

Q: What about the MIC (B. pseudomallei Bp82z66) of the same compound?
A: 1.36 µg/mL (≈ 3.13 µM)

Q: And the MIC (S. aureus RN4220)?
A: 0.5 µg/mL (≈ 1.15 µM)

Q: And the MIC99 (M. tuberculosis H37Rv)?
A: > 100 µg/mL

Q: How did the MIC (M. smegmatis MC^2155) turn out when `C=C/C(C)=C/[C@@]1(C)SC(=O)C(CCCCc2ccc(Cl)cc2)=C1O` [TLM7] was run?
A: > 100 µg/mL

Q: What about the MIC (F. tularensis LVS) of the same compound?
A: 1.73 µg/mL (≈ 4.77 µM)

Q: And the MIC (S. aureus BAA1762)?
A: 50 µg/mL (≈ 138 µM)

Q: And the MIC (S. aureus RN4220)?
A: 64 µg/mL (≈ 176 µM)

Q: And the MIC (B. thialandensis Bt38)?
A: 81 µg/mL (≈ 223 µM)

Q: And the MIC99 (M. tuberculosis H37Rv)?
A: 25 µg/mL (≈ 68.9 µM)

Q: What about the MIC (Y. pestis A1122) of the same compound?
A: 250 µg/mL (≈ 689 µM)

Q: Which MIC (F. tularensis LVS) does the source give for `C=C/C(C)=C/[C@@]1(C)SC(=O)C(C(=O)CCCCc2ccc(-c3ccccc3)cc2)=C1O` [TLM45] here?
A: 0.21 µg/mL (≈ 0.485 µM)

Q: And the MIC (S. aureus BAA1762)?
A: 2 µg/mL (≈ 4.62 µM)

Q: What about the MIC (B. pseudomallei Bp82z66) of the same compound?
A: 4.58 µg/mL (≈ 10.6 µM)

Q: What about the MIC (S. aureus RN4220) of the same compound?
A: 0.5 µg/mL (≈ 1.16 µM)

Q: What about the MIC99 (M. tuberculosis H37Rv) of the same compound?
A: 50 µg/mL (≈ 116 µM)

Q: Which results are given for `C=C/C(C)=C/[C@@]1(C)SC(=O)C(CCCCN=[N+]=[N-])=C1O` [TLM32]?
A: MIC (F. tularensis LVS): 15.3 µg/mL (≈ 52.3 µM); MIC (S. aureus BAA1762): > 100 µg/mL; MIC (S. aureus RN4220): > 64 µg/mL; MIC (B. thialandensis Bt38): 250 µg/mL (≈ 852 µM); MIC99 (M. tuberculosis H37Rv): 50 µg/mL (≈ 170 µM); MIC (Y. pestis A1122): 250 µg/mL (≈ 852 µM)

Q: For `C=C/C(C)=C/[C@@]1(C)SC(=O)C(C(=O)C(F)(F)F)=C1O` [TLM36], which MIC (F. tularensis LVS) is on record?
A: 98.1 µg/mL (≈ 336 µM)

Q: And the MIC (S. aureus BAA1762)?
A: 64 µg/mL (≈ 219 µM)

Q: What about the MIC (B. pseudomallei Bp82z66) of the same compound?
A: 160 µg/mL (≈ 547 µM)

Q: And the MIC (S. aureus RN4220)?
A: > 64 µg/mL

Q: What about the MIC99 (M. tuberculosis H37Rv) of the same compound?
A: > 100 µg/mL

Q: `C=C/C(C)=C/[C@@]1(C)SC(=O)C=C1O` [TLM2, 5R-(+)-3-Demethylthiolactomycin] was tested. Which MIC (M. smegmatis MC^2155) did it give?
A: > 100 µg/mL

Q: And the MIC (F. tularensis LVS)?
A: 124 µg/mL (≈ 631 µM)

Q: And the MIC (S. aureus BAA1762)?
A: 100 µg/mL (≈ 509 µM)

Q: What about the MIC (S. aureus RN4220) of the same compound?
A: 150 µg/mL (≈ 764 µM)

Q: What about the MIC (B. thialandensis Bt38) of the same compound?
A: 148 µg/mL (≈ 756 µM)

Q: And the MIC99 (M. tuberculosis H37Rv)?
A: > 100 µg/mL

Q: And the MIC (Y. pestis A1122)?
A: 250 µg/mL (≈ 1270 µM)
